For orientation: IC50 means the midpoint of a concentration-inhibition curve. One may read the EC50 as the concentration that produces a half-maximal response.

The test system of one assay is Nav1.1. Particulars: cited from earlier work.
In assay [1] the target is T1, hNav1.1 (Homo sapiens, UniProt P35498). The class given is cell-based.
The target in assay [2] is T1, hNav1.1.
For assay [3], the target named is T1, hNav1.1. The class given is cell-based. The source holds these as a separate data set.
Assay [4] deals with T1, hNav1.1. Put plainly: cell-based. The class given is cell-based.
In assay [5] the target is T1, hNav1.1. The class given is cell-based. This is another data set of the same source.
In another assay the test system is Nav1.7. Particulars: cited from earlier work.
Another assay relates to Nav1.6. Particulars: cited from earlier work.

Values joined by “and” are separate entries in the source; they are usually repeats but may differ in a detail not shown here. Identical values can stand only once. “Also recorded” adds a separate entry of the source. Like-named read-outs stand apart in the source and are kept apart here.

Regarding `NC1=N[C@H](O)[C@H]2[C@H]3O[C@]4(O)O[C@@H]([C@@H](O)[C@@]2(N1)[C@@H]4O)[C@]3(O)CO` [TTX, tetrodotoxin], the IC50 in the assay with Nav1.1 is […]; against hNav1.1 [1], 0.0184 µM; at hNav1.1 [2] (read-out: IC50 determined by patch clamp), 0.00327 µM and ~0.00327 µM. At hNav1.1 [1], the “inhibition of the channel-opening effect of 30 μM veratridine” value was “almost completely inhibited”. Also, at hNav1.1 [2], the “suppression of hNav1.1 current signal” value was “almost completely suppressed”.
As for `C=C1[C@@H](O)[C@@H]2O[C@]3(CC[C@H](/C=C/[C@@H](C)[C@@H]4CC(C)=C[C@@]5(O[C@H](C[C@@](C)(O)C(=O)O)CC[C@H]5O)O4)O3)CC[C@H]2O[C@@H]1[C@@H](O)C[C@H](C)[C@H]1O[C@@]2(CC[C@H]1C)OCCC[C@H]2C` [DTX1, dinophysistoxin 1], the “fluorescence intensity stimulated by 30 μM veratridine, inhibition mode concentration-response” value at hNav1.1 [1] is listed as “not significantly inhibited”. For the same molecule, at hNav1.1 [3], the “agonist activity in initial screening” value is reported as “did not exhibit any potential agonist or inhibitor activity”. For the same molecule, the “fluorescence signal in agonist mode concentration-response” value at hNav1.1 [4] is “no significant increase”. Moreover, the “inhibitory effect in initial screening” value at hNav1.1 [5] was “no significant inhibition; also recorded: did not exhibit any potential agonist or inhibitor activity”.
Regarding `COc1ccc(C(=O)O[C@H]2CC[C@@]3(C)[C@@H]4CC[C@H]5[C@]6(O)C[C@H](O)[C@@]7(O)[C@@H](CN8C[C@@H](C)CC[C@H]8[C@@]7(C)O)[C@]6(O)C[C@@]53O[C@]24O)cc1OC` [veratridine], the concentration giving a half-maximal response (EC50) in the assay with Nav1.7 (read-out: EC50, tail and sustained currents) was 9.53 µM; at hNav1.1 [4] (EC50), ~24 µM and 24 µM. In addition, the IC50 with Nav1.7 (read-out: IC50, inhibitory effect on the peak current) is 18.4 µM. The “fluorescence signal relative to the maximum fluorescence signal” value at hNav1.1 [4] is “approximately 80%”. The “peak amplitude of the sodium current” value with Nav1.6 is on record as “enhanced”. Besides, the peak current entry in the assay on Nav1.6 is recorded as “suppressed”.

Source of the values: paper PMC11943507 (Marine Drugs, 2025).
